Drawing on US6608070B1, “2,3-substituted indole compounds as anti-inflammatory and analgesic agents” (priority 1999, dated 2003), this text covers melting point for 42 compounds.

Counter-ions that a name gives are not always drawn.

On to `O=C(O)Cc1c(C(=O)c2ccc(Cl)cc2)[nH]c2cc(Cl)ccc12` (as salt: malonate) [Example 9, [6-Chloro-2-(4-chlorobenzoyl)-1H-indol-3-yl]acetic Acid], for which the melting point fell in the range of 189 to 190 °C.

In the case of `O=C(O)Cc1c(C(=O)c2ccccc2)[nH]c2cc(Cl)ccc12` [Example 2, (2-Benzoyl-6-chloro-1H-indol-3-yl)acetic Acid], the melting point lay in the range of 183 to 186 °C.

`O=C(O)Cc1c(C(=O)c2ccc(Cl)cc2)[nH]c2cc(Cl)ccc12` [Example 9, [6-Chloro-2-(4-chlorobenzoyl)-1H-indol-3-yl]acetic Acid] had a melting point of 181 to 183 °C.

The compound `Cc1ccc(C(=O)c2[nH]c3cc(Cl)ccc3c2CC(=O)O)nc1` [Example 32, [6-Chloro-2-(5-methylpyridine-2-carbonyl)-1H-indol-3-yl]acetic Acid] gave a melting point of 235 to 238 °C.

With `Cc1ccnc(C(=O)c2[nH]c3ccc(Cl)cc3c2CC(=O)O)c1` [Example 36, [5-Chloro-2-(4-methylpyridine-2-carbonyl)-1H-indol-3-yl]acetic Acid], the melting point is 230 to 231 °C.

`Cc1cccc(C(=O)c2[nH]c3ccc(Cl)cc3c2CC(=O)O)n1` [Example 38, [5-Chloro-2-(6-methylpyridine-2-carbonyl)-1H-indol-3-yl]acetic Acid] showed a melting point of 225 to 226 °C.

In the case of `O=C(O)Cc1c(C(=O)c2nccs2)[nH]c2ccc(Cl)cc12` [Example 41, [5-Chloro-2-(thiazole-2-carbonyl)-1H-indol-3-yl]acetic Acid], the melting point was in the range of 230 to 231 °C.

Consider `CCc1ccnc(C(=O)c2[nH]c3cc(Cl)ccc3c2CC(=O)O)c1` [Example 58, [6-Chloro-2-(4-ethylpyridine-2-carbonyl)-1H-indol-3-yl]acetic Acid], for which the melting point was 215 to 216 °C (dec.).

The compound `CCc1ccnc(C(=O)c2[nH]c3ccc(Cl)cc3c2CC(=O)O)c1` [Example 60, [5-Chloro-2-(4-ethylpyridine-2-carbonyl)-1H-indol-3-yl]acetic Acid] returned a melting point of 217 to 218 °C.

Take `CC(C)c1ccnc(C(=O)c2[nH]c3ccc(Cl)cc3c2CC(=O)O)c1` [Example 64, [5-Chloro-2-(4-isopropylpyridine-2-carbonyl)-1H-indol-3-yl]acetic Acid]: the melting point is 227 to 228 °C.

`CC(C)(C)c1ccnc(C(=O)c2[nH]c3cc(Cl)ccc3c2CC(=O)O)c1` [Example 70, [2-(4-tert-Butylpyridine-2-carbonyl)-6-chloro-1H-indol-3-yl]acetic Acid]: the melting point fell in the range of 203 to 205 °C.

Take `CC(C)(C)c1ccnc(C(=O)c2[nH]c3ccc(Cl)cc3c2CC(=O)O)c1` [Example 72, [2-(4-tert-Butylpyridine-2-carbonyl)-5-chloro-1H-indol-3-yl]acetic Acid]: the melting point was in the range of 209 to 211 °C.

`Cc1cccnc1C(=O)c1[nH]c2cc(Cl)ccc2c1CC(=O)O` [Example 74, [6-Chloro-2-(3-methylpyridine-2-carbonyl)-1H-indol-3-yl]acetic Acid] showed a melting point of 195 to 196 °C.

Compound `Cc1cccc(C(=O)c2[nH]c3cc(Cl)ccc3c2CC(=O)O)n1` [Example 78, [6-Chloro-2-(6-methylpyridine-2-carbonyl)-1H-indol-3-yl]acetic Acid] returned a melting point of 230 to 231 °C.

`Cc1ccc(C(=O)c2[nH]c3ccc(Cl)cc3c2CC(=O)O)nc1` [Example 80, [5-Chloro-2-(5-methylpyridine-2-carbonyl)-1H-indol-3-yl]acetic Acid] came in with a melting point of 247 to 248 °C.

`O=C(O)Cc1c(C(=O)c2ccc(Cl)cn2)[nH]c2ccc(Cl)cc12` [Example 86, [5-Chloro-2-(5-chloropyridine-2-carbonyl)-1H-indol-3-yl]acetic Acid] gave a melting point of 259 to 260 °C.

With `O=C(O)Cc1c(C(=O)c2ccc(Cl)cn2)[nH]c2cc(Cl)ccc12` [Example 88, [6-Chloro-2-(5-chloropyridine-2-carbonyl)-1H-indol-3-yl]acetic Acid], the melting point lay within 242 to 244 °C.

The compound `O=C(O)Cc1c(C(=O)c2cc(Cl)ccn2)[nH]c2ccc(Cl)cc12` [Example 90, [5-Chloro-2-(4-chloropyridine-2-carbonyl)-1H-indol-3-yl]acetic Acid] showed a melting point of 243 to 244 °C.

For `O=C(O)Cc1c(C(=O)c2cccnc2)[nH]c2cc(Cl)ccc12` [Example 92, [6-Chloro-2-(pyridine-3-carbonyl)-1H-indol-3-yl]acetic Acid], the melting point was in the range of 267 to 268 °C.

Regarding `O=C(O)Cc1c(C(=O)c2ccncc2)[nH]c2cc(Cl)ccc12` [Example 94, [6-Chloro-2-(pyridine-4-carbonyl)-1H-indol-3-yl]acetic Acid], the melting point lay within 256 to 257 °C.

For the compound `O=C(O)Cc1c(C(=O)c2cc(CO)ccn2)[nH]c2cc(Cl)ccc12` [Example 96, [6-Chloro-2-[4-(hydroxymethyl)pyridine-2-carbonyl]-1H-indol-3-yl]acetic Acid], the melting point lay in the range of 210 to 212 °C.

The compound `O=C(O)Cc1c(C(=O)c2cc(CO)ccn2)[nH]c2ccc(Cl)cc12` [Example 98, [5-Chloro-2-[4-(hydroxymethyl)pyridine-2-carbonyl]-1H-indol-3-yl]acetic Acid] came in with a melting point of 218 to 219 °C.

Consider `Cc1ccnc(C(=O)c2[nH]c3ccc(Cl)cc3c2CC(=O)O)c1C` [Example 100, [5-Chloro-2-(3,4-dimethylpyridine-2-carbonyl)-1H-indol-3-yl]acetic Acid], for which the melting point fell in the range of 236 to 237 °C.

Compound `Cc1cnc(C(=O)c2[nH]c3ccc(Cl)cc3c2CC(=O)O)cc1C` [Example 102, [5-Chloro-2-(4,5-dimethylpyridine-2-carbonyl)-1H-indol-3-yl]acetic Acid] had a melting point of 245 to 246 °C.

`Cc1cnc(C(=O)c2[nH]c3cc(Cl)ccc3c2CC(=O)O)cc1C` [Example 104, [6-Chloro-2-(4,5-dimethylpyridine-2-carbonyl)-1 H-indol-3-yl]acetic Acid] showed a melting point of 226 to 228 °C.

Turning to `COc1ccnc(C(=O)c2[nH]c3cc(Cl)ccc3c2CC(=O)O)c1` [Example 106, [6-Chloro-2-(4-methoxypyridine-2-carbonyl)-1H-indol-3-yl]acetic Acid], the melting point was 213 °C (dec.).

For `Cc1cnc(C(=O)c2[nH]c3cc(Cl)ccc3c2CC(=O)O)c(C)c1` [Example 110, [6-Chloro-2-(3,5-dimethylpyridine-2-carbonyl)-1H-indol-3-yl]acetic Acid], the melting point was in the range of 199 to 200 °C.

`CCc1ccnc(C(=O)c2[nH]c3ccc(Cl)cc3c2CC(=O)O)c1F` [Example 112, [5-Chloro-2-(4-ethyl-3-fluoropyridine-2-carbonyl)-1H-indol-3-yl]acetic Acid] came in with a melting point of 208 °C.

The compound `Cc1cc(C)nc(C(=O)c2[nH]c3ccc(Cl)cc3c2CC(=O)O)c1` [Example 120, [5-Chloro-2-(4,6-dimethylpyridine-2-carbonyl)-1H-indol-3-yl]acetic Acid] had a melting point of 233 to 235 °C.

`O=C(O)Cc1c(C(=O)c2ccc(Cl)c(F)c2)[nH]c2cc(Cl)ccc12` [Example 204, [6-Chloro-2-(4-chloro-3-fluorobenzoyl)-1H-indol-3-yl]acetic Acid] gave a melting point of 179 to 182 °C.

Take `O=C(O)Cc1c(C(=O)c2cc3ccccc3cn2)[nH]c2ccc(Cl)cc12` [Example 221, [5-Chloro-2-(isoquinoline-3-carbonyl)-1H-indol-3-yl]acetic Acid]: the melting point was in the range of 239 to 240 °C.

For the compound `O=C(O)Cc1c(C(=O)c2cc3ccccc3cn2)[nH]c2cc(Cl)ccc12` [Example 223, [6-Chloro-2-(isoquinoline-3-carbonyl)-1H-indol-3-yl]acetic Acid], the melting point was in the range of 236 to 237 °C.

For `Cc1cc(C(=O)c2[nH]c3ccc(Cl)cc3c2CC(=O)O)no1` [Example 225, [5-Chloro-2-(5-methylisoxazole-3-carbonyl)-1H-indol-3-yl]acetic Acid], the melting point is 253 to 255 °C.

Consider `Cc1cc(C(=O)c2[nH]c3cc(Cl)ccc3c2CC(=O)O)no1` [Example 227, [6-Chloro-2-(5-methylisoxazole-3-carbonyl)-1H-indol-3-yl]acetic Acid], for which the melting point lay in the range of 227 to 229 °C.

For `Cc1nnsc1C(=O)c1[nH]c2ccc(Cl)cc2c1CC(=O)O` [Example 229, [5-Chloro-2-(4-methyl-1,2,3-thiadiazole-5-carbonyl)-1H-indol-3-yl]acetic Acid], the melting point fell in the range of 229 to 230 °C.

`Cc1nnsc1C(=O)c1[nH]c2cc(Cl)ccc2c1CC(=O)O` [Example 231, [6-Chloro-2-(4-methyl-1,2,3-thiadiazole-5-carbonyl)-1H-indol-3-yl]acetic Acid] registered a melting point of 215 to 216 °C.

`Cc1cnc(C(=O)c2[nH]c3ccc(Cl)cc3c2CC(=O)O)s1` [Example 233, [5-Chloro-2-(5-methylthiazole-2-carbonyl)-1H-indol-3-yl]acetic Acid] gave a melting point of 231 to 233 °C.

Turning to `Cc1cnc(C(=O)c2[nH]c3cc(Cl)ccc3c2CC(=O)O)s1` [Example 235, [6Chloro-2-(5-methylthiazole-2-carbonyl)-1H-indol-3-yl]acetic Acid], the melting point lay within 225 to 226 °C.

Regarding `O=C(O)Cc1c(C(=O)c2cccs2)[nH]c2cc(Cl)ccc12` [Example 236, [6-Chloro-2-(2-thienyl)carbonylindol-3-yl]acetic Acid], the melting point was in the range of 177 to 178 °C.

Turning to `CC(C)(O)c1ccoc1C(=O)c1[nH]c2cc(Cl)ccc2c1CC(=O)O` [Example 238, [6-Chloro-2-[3-(1-hydroxy-1-methylethyl)-2-furoyl]1H-indol-3-yl]acetic Acid], the melting point lay in the range of 229 to 230 °C.

On to `COCc1ccoc1C(=O)c1[nH]c2cc(Cl)ccc2c1CC(=O)O` [Example 240, [6-Chloro-2-[3-methoxymethyl-2-furoyl]-1H-indol-3-yl]acetic Acid], for which the melting point was 212 to 213 °C.

As for `Cc1ccnc(C(=O)c2[nH]c3ccc(Cl)cc3c2CC(=O)NCCO)c1` [Example 269, [5-Chloro-2-(4-methylpyridine-2-carbonyl)-1H-indol-3-yl]-N-(2-hydroxyethyl)acetamide], the melting point amounted to 195.9 °C.

What is called melting point is the temperature of the solid-liquid transition.
